How the values were obtained:
Assay in all cases: in vitro enzyme inhibition, optical density read-out
Assay type in all cases: biochemical
Settings in all cases: positive control; substrate, pH and temperature not given
Elastase = target: T1, Elastase
T1 construct: gene CELA1; usual assay enzyme is native porcine pancreatic elastase, human neutrophil elastase possible
Description: in vitro enzyme inhibition, optical density read-out on Elastase

Hyaluronidase = target: T2, Hyaluronidase
T2 construct: gene SPAM1; usual assay enzyme is native bovine testicular hyaluronidase
Description: in vitro enzyme inhibition, optical density read-out on Hyaluronidase

Collagenase = target: T3, Collagenase
T3 construct: gene colG; usual assay enzyme is native clostridial collagenase, human MMP1 possible
Description: in vitro enzyme inhibition, optical density read-out on Collagenase

| SMILES | Elastase / IC50 (Elastase) [µg/mL] | Hyaluronidase / IC50 (Hyaluronidase) [µg/mL] | Collagenase / IC50 (Collagenase) [µg/mL] |
| --- | --- | --- | --- |
| O=c1cc(CO)occ1O [Kojic acid] | 21.60 ± 0.9 | 14.46 ± 0.6 |  |
| O=c1c(O)c(-c2ccc(O)c(O)c2)oc2cc(O)cc(O)c12 [Quercetin] |  |  | 24.83 ± 1.8 |

From publication PMC10948610, “Profiling of Petroselinum sativum (mill.) fuss phytoconstituents and assessment of their biocompatibility, antioxidant, anti-aging, wound healing, and antibacterial activities” (Frontiers in Nutrition, 2024)
